Assays:
[1] = Cytotoxicity determination by CCK-8; type: cell-based; conditions: mouse, RAW264.7 macrophage cells, RAW264.7 cells
Procedure: (§1) RAW264.7 mouse macrophages were purchased from Zhongqiao Xinzhou and cultured in DMEM supplemented with 10% fetal bovine serum (FBS) and 1% penicillin/streptomycin in a 37 °C, 5% CO2 incubator. The cells were passaged every two days to maintain the monolayer cell state.
The CCK-8 kit was used to determine the cytotoxicity of the target compounds (1–5) to RAW264.7 cells. The well-growing cells were subcultured in a 96-well plate. After the cells adhered to the wall, the experimental group was added with a medium containing different concentrations of compounds to make the final concentration reach 5, 10, 20, 40, 80, 160 and 320 μmoL/L. The control group was added with a medium without compound, and a blank group without cells or compound was set at the same time. After culturing in a constant temperature incubator for a period, CCK-8 solution was added to produce yellow formazan product. The OD value was measured by the microplate reader at the detection wavelength of 450 nm, and the cell survival rate was calculated. The cell survival rate formula is as follows:(1) Cell Survival Rate %=ODe−ODb/ODc−ODb×100% where ODe was the OD value of the experimental group, ODb was the OD value of the blank group, and ODc was the OD value of the control group.

[2] = test system: TNF-α secretion in RAW264.7 cells induced by LPS; experiment: TNF-α content in supernatant of LPS-induced RAW264.7 cells (ELISA); type: cell-based, mouse; conditions: 20 μM, LPS 1 ug/mL, 24 h, RAW264.7, vs model group
Procedure: Tumor necrosis factor-α (TNF-α) is a pleiotropic proinflammatory cytokine, known for its proinflammatory activity. To explore the inhibitory effects of five compounds on TNF-α, ELISA was used to determine the content of inflammatory factor TNF-α in the supernatant of RAW264.7 cells stimulated by LPS. RAW264.7 cells secreted a large amount of inflammatory-factor TNF-α 24 h after LPS (1 ug/mL) induction.
as §1
(§2) The RAW264.7 cells in the logarithmic growth phase were seeded in a 24-well plate and placed in a 37 °C, 5% CO2 constant temperature incubator for culture. After 24 h, the culture medium was discarded. The blank group was added with 10% FBS DMEM 1 mL. The group was added with a medium containing 1 ug/mL LPS, and the experimental group was added with LPS and different concentrations of the target compound to make the final volume 1 mL. After 24 h of culture, the cell supernatant was taken and stored in a refrigerator at −20 °C for later use. The Griess kit was used to determine the concentration of NO in the supernatant, and a double antibody sandwich ELISA kit was used to detect TNF-α and IL-1β.

[3] = test system: xylene-induced ear edema in mice; experiment: Xylene-induced ear edema in mice; type: in vivo, Kunming mice; conditions: for Degree of Edema: 30 μL xylene, 30 min, mean ± SD, n = 6; for Inhibition of ear swelling: xylene-induced ear edema
Procedure: To evaluate the differences in anti-inflammatory effects of the five compounds, the in vivo anti-inflammatory experiment was conducted based on the acute inflammation model of ear swelling induced by xylene. Under the inflammatory effect of 30 μL of xylene, the degree of ear swelling in the blank group and each experimental group was different. […] With an increase in dose the degree of ear swelling decreased, and the effect of ear swelling inhibition was more significant at high dose (100 mg/kg). Under the action of drugs, the five target compounds (1–5) have significant inhibitory effects on ear swelling (Figure 6).
Adult male Kunming mice (18–20 g) were bought from Liaoning Changsheng Biotechnology Co., Ltd. (Shenyang, China, License No. SCXK (Liao) 2015-0001). The breeding is carried out under standard conditions without pathogens (constant room temperature 20–22 °C, 55 ± 5% humidity, 12 h light–dark cycle and free access to food and water). The research protocol has been approved by the Animal Experiment Ethics Committee of the School of Pharmacy of Jilin University (20190048). All experimental operations follow the principles of laboratory animal care, and all animal experiments are conducted in accordance with the Guide for the Care and Use of Laboratory Animals (released by the National Research Council).
In this experiment, Kunming mice were randomly divided into two groups. One group was given 5% sodium carboxymethyl cellulose solution as the blank group, and the other group was given different concentrations of the target compound as the experimental group (high, medium and low doses); continuous intragastric administration was two days and the volume of intragastric administration was 0.2 mL. One hour after the last administration, 30 μL of xylene was evenly smeared on both sides of the mouse’s right ear. After 30 min, the mouse’s right ear was obviously red and swollen and the capillary congestion was severe. Cervical vertebrae were dislocated and sacrificed. The ears on both sides were quickly cut off, an 8 mm ear punch was used to punch holes at the same position on the ears on both sides and they were immediately weighed to calculate the weight difference.
The formula for the difference in ear weight is as follows:(2) D=Wr−Wl where Wr was the weight of the right ear and Wl was the weight of the left ear.
The formula for the inhibition rate of ear swelling is as follows:(3) Inhibition %=Dc−Dt/Dc×100% where Dc was the extent of ear edema of the control group and Dt was the extent of ear edema of the treatment group.

[4] = test system: IL-1β secretion in RAW264.7 cells induced by LPS; experiment: IL-1β content in supernatant of LPS-induced RAW264.7 cells (ELISA); type: cell-based, mouse; conditions: 20 μM, LPS, 24 h, RAW264.7, vs model group
Source text: Interleukin-1β (IL-1β) has strong proinflammatory activity and can induce the production of a variety of proinflammatory mediators, such as cytokines and chemokines. In this work, the ELISA method was used to determine the IL-1β content in the supernatant of RAW264.7 cells stimulated by LPS to evaluate the effects of five compounds on IL-1β secretion.
as §1, §2

[5] = test system: xylene-induced ear edema in mice; set-up: method as in PMID 31247960, doi:10.2174/157018012800673092; conditions: previous study; cited from earlier work
[6] = 25 mg/kg intragastric for two days
[7] = 50 mg/kg intragastric for two days
[8] = 100 mg/kg (high dose) intragastric
[9] = 100 mg/kg intragastric for two days

Compound	melting point	CC50 [1]	inhibition of TNF-α secretion [2]	Degree of Edema [3, 6]	Inhibition of ear swelling ([3]; 25 mg/kg intragastric)	Degree of Edema [3, 7]	Inhibition of ear swelling ([3]; 50 mg/kg intragastric)	Inhibition of ear swelling [3, 8]	Degree of Edema [3, 9]	inhibition of IL-1β secretion [4]	effect on ear edema in mice caused by xylene [5]
CN1CC(=O)N(C(=O)C=Cc2ccccc2)C1=O [Compound 1, 3-cinnamoyl-1-methylimidazolidine-2,4-dione]	140.6 to 141.5 °C	264 µM	no obvious inhibitory effect on TNF-α	9.84 ± 0.72 mg	19.67%	8.47 ± 0.64 mg	30.86%	44.16%	6.84 ± 0.61 mg	no obvious inhibitory effect on IL-1β	
CN1CC(=O)N(C(=O)/C=C/c2ccc3c(c2)OCO3)C1=O [Compound 3, (E)-3-(3-(benzo[d][1,3]dioxol-5-yl)acryloyl)-1-methylimidazolidine-2,4-dione]	164.8 to 166.1 °C	184 µM	no obvious inhibitory effect on TNF-α	9.41 ± 1.37 mg	23.18%	9.05 ± 0.84 mg	26.12%	33.06%	8.20 ± 0.27 mg	no obvious inhibitory effect on IL-1β	
COc1cc(/C=C/C(=O)N2C(=O)CN(C)C2=O)ccc1OC(C)=O [Compound 5, (E)-2-methoxy-4-(3-(3-methyl-2,5-dioxoimidazolidin-1-yl)-3-oxoprop-1-en-1-yl)phenyl acetate]	148.3 to 149.8 °C	232 µM	no obvious inhibitory effect on TNF-α	10.46 ± 0.64 mg	14.61%	7.95 ± 0.71 mg	35.10%	52.08%	5.87 ± 0.75 mg	no obvious inhibitory effect on IL-1β	
CN1CC(=O)NC1=O [MHD, 1-Methylhydantoin]											can reduce ear edema in mice caused by xylene
